From patent US20260125371A1, “METHOD FOR INHIBITING CLOSTRIDIOIDES DIFFICILE SPORE GERMINATION” (UNIVERSITY OF NOTRE DAME DU LAC, priority 2022, published 2026)
Where two headings read alike, the source gives them in different places.

How the values were obtained:
[1] = system: C. difficile strains; test: MIC (microdilution) against panel of 101 C. difficile strains; type: cell-based, Clostridioides difficile
[2] = system: extended panel of Gram-positive bacteria; test: MIC range over extended panel of Gram-positive bacteria; type: cell-based; conditions: other than C. difficile
[3] = system: C. difficile ATCC 43255; type: cell-based, Clostridioides difficile
[4] = system: C. difficile strain ATCC43255 spores; test: Spore germination inhibition assay; type: cell-based, Clostridioides difficile; conditions: Clostridioides difficile, 1 h, compound 45 μM, germinant 6 mM taurocholate and 12 mM glycine, OD600 over 60 min, duplicate
[5] = C. difficile strains of Table 4

O=[N+]([O-])c1cnc(-c2nc(-c3ccc(OC4CCCC4)cc3)no2)[nH]1 [Compound 57, 3-(4-(Cyclopentyloxy)phenyl)-5-(4-nitro-1H-imidazol-2-yl)-1,2,4-oxadiazole]
not active: activity against Gram-positive bacteria [2]
< 10%: inhibition at 45 µM [4]
1 µg/mL: MIC90 [1, 5] | MIC ([1]; Clostridioides difficile, strain HM-88) | MIC ([1]; Clostridioides difficile, strain NR-13433) | MIC ([1]; Clostridioides difficile, strain NR-32887) | MIC ([1]; Clostridioides difficile, strain NR-32888) | MIC ([1]; Clostridioides difficile, strain NR-32889) | MIC ([1]; Clostridioides difficile, strain NR-49288) | MIC ([1]; Clostridioides difficile, strain NR-49289) | MIC ([1]; Clostridioides difficile, strain NR-49290) | MIC ([1]; Clostridioides difficile, strain NR-49291) | MIC ([1]; Clostridioides difficile, strain NR-49295) | MIC ([1]; Clostridioides difficile, strain NR-49296) | MIC ([1]; Clostridioides difficile, strain NR-49297) | MIC ([1]; Clostridioides difficile, strain NR-49298) | MIC ([1]; Clostridioides difficile, strain NR-49299) | MIC ([1]; Clostridioides difficile, strain NR-49300) | MIC ([1]; Clostridioides difficile, strain NR-49303) | MIC ([1]; Clostridioides difficile, strain NR-49304) | MIC ([1]; Clostridioides difficile, strain NR-49311) | MIC ([1]; Clostridioides difficile, strain NR-49316) | MIC ([1]; Clostridioides difficile, strain NR-49317) | MIC ([1]; Clostridioides difficile, strain NR-49321) | MIC ([1]; Clostridioides difficile, strain NR-49324) | MIC ([1]; Clostridioides difficile, strain RMA23691) | MIC ([1]; Clostridioides difficile, strain RMA23828) | MIC ([1]; Clostridioides difficile, strain RMA27081) | MIC90 ([1]; Clostridioides difficile, 101 C. difficile strains, read-out: MIC90) | MIC90 ([1]; Clostridioides difficile, 101 C. difficile strains, read-out: MIC90 (101 strains))
8 fold: increase in MIC on serial passage ([3]; whole serial passage experiment (30 passages))
0.25 µg/mL: MIC ([1]; Clostridioides difficile, BAA1801, strain BAA-1801) | MIC ([1]; Clostridioides difficile, C. difficile NR49302) | MIC ([1]; Clostridioides difficile, C. difficile NR49310) | MIC ([1]; Clostridioides difficile, strain HM-747) | MIC ([1]; Clostridioides difficile, strain NR49302) | MIC ([1]; Clostridioides difficile, strain NR49310) | MIC ([1]; Clostridioides difficile, strain NR-13438) | MIC ([1]; Clostridioides difficile, strain NR-32892) | MIC ([1]; Clostridioides difficile, strain NR-32895) | MIC ([1]; Clostridioides difficile, strain NR-32896) | MIC ([1]; Clostridioides difficile, strain NR-32897) | MIC ([1]; Clostridioides difficile, strain NR-32900) | MIC ([1]; Clostridioides difficile, strain NR-32903) | MIC ([1]; Clostridioides difficile, strain NR-49280) | MIC ([1]; Clostridioides difficile, strain NR-49281) | MIC ([1]; Clostridioides difficile, strain NR-49287) | MIC ([1]; Clostridioides difficile, strain NR-49319) | MIC ([1]; Clostridioides difficile, strain NR-49325) | MIC ([1]; Clostridioides difficile, strain NR-49327)
14 passages: passages after which MIC increased 4-fold ([3]; 4-fold MIC increase)
2 µg/mL: MIC ([1]; Clostridioides difficile, strain NR-49328) | MIC ([1]; Clostridioides difficile, strain RMA26675) | MIC ([1]; Clostridioides difficile, strain RMA27173)
0.5 µg/mL: IMIC50 (101 strains) ([1]; 101 C. difficile strains) | MIC50 [1, 5] | MIC ([1]; Clostridioides difficile, ATCC43598, strain ATCC43598) | MIC ([1]; Clostridioides difficile, strain HM-89) | MIC ([1]; Clostridioides difficile, strain HM-745) | MIC ([1]; Clostridioides difficile, strain HM-746) | MIC ([1]; Clostridioides difficile, strain NR49294) | MIC ([1]; Clostridioides difficile, strain NR49318) | MIC ([1]; Clostridioides difficile, strain NR-13427) | MIC ([1]; Clostridioides difficile, strain NR-13428) | MIC ([1]; Clostridioides difficile, strain NR-13429) | MIC ([1]; Clostridioides difficile, strain NR-13430) | MIC ([1]; Clostridioides difficile, strain NR-13431) | MIC ([1]; Clostridioides difficile, strain NR-13435) | MIC ([1]; Clostridioides difficile, strain NR-13436) | MIC ([1]; Clostridioides difficile, strain NR-13437) | MIC ([1]; Clostridioides difficile, strain NR-32882) | MIC ([1]; Clostridioides difficile, strain NR-32883) | MIC ([1]; Clostridioides difficile, strain NR-32884) | MIC ([1]; Clostridioides difficile, strain NR-32885) | MIC ([1]; Clostridioides difficile, strain NR-32886) | MIC ([1]; Clostridioides difficile, strain NR-32891) | MIC ([1]; Clostridioides difficile, strain NR-49277) | MIC ([1]; Clostridioides difficile, strain NR-49278) | MIC ([1]; Clostridioides difficile, strain NR-49279) | MIC ([1]; Clostridioides difficile, strain NR-49282) | MIC ([1]; Clostridioides difficile, strain NR-49283) | MIC ([1]; Clostridioides difficile, strain NR-49284) | MIC ([1]; Clostridioides difficile, strain NR-49285) | MIC ([1]; Clostridioides difficile, strain NR-49286) | MIC ([1]; Clostridioides difficile, strain NR-49293) | MIC ([1]; Clostridioides difficile, strain NR-49301) | MIC ([1]; Clostridioides difficile, strain NR-49306) | MIC ([1]; Clostridioides difficile, strain NR-49307) | MIC ([1]; Clostridioides difficile, strain NR-49308) | MIC ([1]; Clostridioides difficile, strain NR-49309) | MIC ([1]; Clostridioides difficile, strain NR-49312) | MIC ([1]; Clostridioides difficile, strain NR-49313) | MIC ([1]; Clostridioides difficile, strain NR-49314) | MIC ([1]; Clostridioides difficile, strain NR-49315) | MIC ([1]; Clostridioides difficile, strain NR-49320) | MIC ([1]; Clostridioides difficile, strain NR-49323) | MIC ([1]; Clostridioides difficile, strain NR-49326) | MIC ([1]; Clostridioides difficile, strain NR-49329) | MIC50 ([1]; Clostridioides difficile, 101 C. difficile strains, read-out: MIC50)
0.125 µg/mL: MIC ([1]; Clostridioides difficile, BAA1804, strain BAA-1804) | MIC ([1]; Clostridioides difficile, BAA1812, strain BAA-1812) | MIC ([1]; Clostridioides difficile, BAA1814, strain BAA-1814) | MIC ([1]; Clostridioides difficile, BAA1870, strain BAA-1870) | MIC ([1]; Clostridioides difficile, C. difficile 24531, resistant to VAN) | MIC ([1]; Clostridioides difficile, C. difficile NR49292) | MIC ([1]; Clostridioides difficile, C. difficile NR49305) | MIC ([1]; Clostridioides difficile, strain NR49292) | MIC ([1]; Clostridioides difficile, strain NR49305) | MIC ([1]; Clostridioides difficile, strain NR-13434) | MIC ([1]; Clostridioides difficile, strain NR-13553) | MIC ([1]; Clostridioides difficile, strain NR-32890) | MIC ([1]; Clostridioides difficile, strain NR-32904) | MIC ([1]; Clostridioides difficile, strain RMA24531) | MIC ([1]; Clostridioides difficile, strain RMA24923)
8 passages: passages after which MIC increased 2-fold ([3]; 2-fold MIC increase)
20 passages: passages after which MIC increased 8-fold ([3]; 8-fold MIC increase)
